The source of these data is PubChem BioAssay AID270 (DTP/NCI, 2004).

Values joined by “and” are separate entries in the source; they are usually repeats but may differ in a detail not shown here. Equal values may be shown once. Inconclusive results are not listed.

The subject of the assay is BDF1 mice, s.c. Lewis lung carcinoma, T/C %. Briefly: NCI In Vivo Anticancer Drug Screen. Data for tumor model Lewis Lung Carcinoma (subcutaneous) in B6D2F1 (BDF1) mice. The gist of the method: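 Transplanted tumors grown in mice; compound vs vehicle dosing; endpoint survival or tumor size; ratio T/C.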
[1] abbreviates: endpoint: median survival time, dose: 6.25 mg/kg/injection, schedule: Q01DX009 (ip), vehicle: Klucel (hydroxypropylcellulose) (HPC), higher = longer survival.
Setting [2] is: endpoint: median survival time, dose: 12.5 mg/kg/injection, schedule: Q01DX009 (ip), vehicle: Klucel (hydroxypropylcellulose) (HPC), higher = longer survival.
[3] abbreviates: endpoint: median survival time, dose: 25.0 mg/kg/injection, schedule: Q01DX009 (ip), vehicle: Klucel (hydroxypropylcellulose) (HPC), higher = longer survival.
[4] abbreviates: endpoint: mean tumor weight, dose: 5.0 mg/kg/injection, schedule: Q01DX011 (ip), vehicle: saline, higher = larger tumour.
Setting [5] is: endpoint: mean tumor weight, dose: 10.0 mg/kg/injection, schedule: Q01DX011 (ip), vehicle: saline, higher = larger tumour.

As to `c1ccc(C2=C(c3ccccc3)C(c3ccccc3)=C(c3ccccc3)C2)cc1`, the T/C is 89 % of control (endpoint: mean tumor weight, dose: 118.0 mg/kg/injection, schedule: Q01DX011 (ip), vehicle: other, higher = larger tumour); 65 % of control (endpoint: mean tumor weight, dose: 178.0 mg/kg/injection, schedule: Q01DX011 (ip), vehicle: other, higher = larger tumour); 92 % of control (endpoint: mean tumor weight, dose: 250.0 mg/kg/injection, schedule: Q01DX011 (ip), vehicle: other, higher = larger tumour); 84 % of control (endpoint: mean tumor weight, dose: 266.0 mg/kg/injection, schedule: Q01DX011 (ip), vehicle: other, higher = larger tumour); 109 % of control (endpoint: mean tumor weight, dose: 400.0 mg/kg/injection, schedule: Q01DX011 (ip), vehicle: other, higher = larger tumour); 124 % of control (endpoint: mean tumor weight, dose: 750.0 mg/kg/injection, schedule: Q01DX011 (ip), vehicle: other, higher = larger tumour). In addition, the T/C (endpoint: mean tumor weight, dose: 1000.0 mg/kg/injection, schedule: Q01DX011 (ip), vehicle: other, higher = larger tumour) is 60 % of control.
Take `CCC(c1ccc(OC(=O)Cc2ccc(N(CCCl)CCCl)cc2)cc1)C(CC)c1ccc(OC(=O)Cc2ccc(N(CCCl)CCCl)cc2)cc1` (stereo not given): the T/C under setting [1] was 102 % of control; the T/C under setting [2] was 104 % of control; the T/C under setting [3] was 104 % of control; the T/C (endpoint: median survival time, dose: 25.0 mg/kg/injection, schedule: Q02DX009 (ip), vehicle: saline with Tween-80, higher = longer survival) was 86 % of control; the T/C (endpoint: median survival time, dose: 50.0 mg/kg/injection, schedule: Q02DX009 (ip), vehicle: saline with Tween-80, higher = longer survival) was 88 % of control; the T/C (endpoint: median survival time, dose: 100.0 mg/kg/injection, schedule: Q02DX009 (ip), vehicle: saline with Tween-80, higher = longer survival) is 94 % of control.
For the compound `CC1([CH2][Hg][I])COCC([CH2][Hg][I])O1` (stereo not given), the T/C by setting is: under setting [4], 63 % of control; under setting [5], 42 % of control; (endpoint: mean tumor weight, dose: 20.0 mg/kg/injection, schedule: Q01DX011 (ip), vehicle: saline, higher = larger tumour) 52 % of control; (endpoint: mean tumor weight, dose: 40.0 mg/kg/injection, schedule: Q01DX011 (ip), vehicle: saline, higher = larger tumour) 39 % of control.
As to `OC(CCl)CN1CC[N+]2(CC1)CC[N+]1(CCN(CC(O)CCl)CC1)CC2` (stereo not given), the T/C (endpoint: median survival time, dose: 40.0 mg/kg/injection, schedule: Q01DX009 (ip), vehicle: saline, higher = longer survival) is 107 % of control and 112 % of control; the T/C (endpoint: median survival time, dose: 80.0 mg/kg/injection, schedule: Q01DX009 (ip), vehicle: saline, higher = longer survival) is 114 % of control and 121 % of control; the T/C (endpoint: median survival time, dose: 160.0 mg/kg/injection, schedule: Q01DX009 (ip), vehicle: saline, higher = longer survival) is 120 % of control; the T/C (endpoint: median survival time, dose: 320.0 mg/kg/injection, schedule: Q01DX009 (ip), vehicle: saline, higher = longer survival) was 150 % of control and 157 % of control.
For the compound `CC(C)n1c2c([n+](C)c1/C=C/c1ccccc1)C(=O)c1ccccc1C2=O`, the T/C is, setting by setting: (endpoint: median survival time, dose: 0.5 mg/kg/injection, schedule: Q01DX009 (ip), vehicle: saline, higher = longer survival) 96 % of control; (endpoint: median survival time, dose: 1.0 mg/kg/injection, schedule: Q01DX009 (ip), vehicle: saline, higher = longer survival) 110 % of control.
Take `Nc1nc(-c2ccccc2N=NN2CCCC2)nc2ccccc12`: the T/C was 105 % of control under setting [1], 97 % of control under setting [2] and 103 % of control under setting [3].
In the case of `O=S(=O)(O)C(Nc1ccccc1)c1ccccc1` (stereo not given), the T/C reads like this: (endpoint: mean tumor weight, dose: 100.0 mg/kg/injection, schedule: Q01DX011 (ip), vehicle: water, higher = larger tumour) 51 % of control; (endpoint: mean tumor weight, dose: 200.0 mg/kg/injection, schedule: Q01DX011 (ip), vehicle: water, higher = larger tumour) 71 % of control; (endpoint: mean tumor weight, dose: 400.0 mg/kg/injection, schedule: Q01DX011 (ip), vehicle: water, higher = larger tumour) 27 % of control.
Consider `CC[C@]1(O)C[C@H](OC2CC(N(C)C)C(OC3CC(O)C(O)C(C)O3)C(C)O2)c2c(cc3c(c2O)C(=O)c2c(O)ccc(O)c2C3=O)[C@H]1C(=O)OC` (stereo not given in full), for which the T/C was 118 % of control (endpoint: median survival time, dose: 0.25 mg/kg/injection, schedule: Q01DX009 (ip), vehicle: saline with Tween-80, higher = longer survival); 110 % of control (endpoint: median survival time, dose: 0.5 mg/kg/injection, schedule: Q01DX009 (ip), vehicle: saline with Tween-80, higher = longer survival); 123 % of control (endpoint: median survival time, dose: 1.0 mg/kg/injection, schedule: Q01DX009 (ip), vehicle: saline with Tween-80, higher = longer survival); 110 % of control (endpoint: median survival time, dose: 2.0 mg/kg/injection, schedule: Q01DX009 (ip), vehicle: saline with Tween-80, higher = longer survival).
`O=C(O)c1cc(O)c(O)c(O)c1`: the T/C was 111 % of control (endpoint: mean tumor weight, dose: 50.0 mg/kg/injection, schedule: Q01DX011 (ip), vehicle: saline, higher = larger tumour); 89 % of control (endpoint: mean tumor weight, dose: 200.0 mg/kg/injection, schedule: Q01DX011 (ip), vehicle: saline, higher = larger tumour); 99 % of control (endpoint: mean tumor weight, dose: 400.0 mg/kg/injection, schedule: Q01DX011 (ip), vehicle: saline, higher = larger tumour).
`Cn1c(=O)[nH]c2nncnc2c1=O`: the T/C is 108 % of control (endpoint: median survival time, dose: 8.0 mg/kg/injection, schedule: Q01DX009 (ip), vehicle: water, higher = longer survival); 86 % of control (endpoint: median survival time, dose: 16.0 mg/kg/injection, schedule: Q01DX009 (ip), vehicle: water, higher = longer survival); 123 % of control (endpoint: median survival time, dose: 37.5 micrograms/kg/injection, schedule: Q01DX009 (ip), vehicle: water, higher = longer survival); 123 % of control (endpoint: median survival time, dose: 75.0 micrograms/kg/injection, schedule: Q01DX009 (ip), vehicle: water, higher = longer survival); 111 % of control (endpoint: median survival time, dose: 150.0 micrograms/kg/injection, schedule: Q01DX009 (ip), vehicle: water, higher = longer survival); 123 % of control (endpoint: median survival time, dose: 300.0 micrograms/kg/injection, schedule: Q01DX009 (ip), vehicle: water, higher = longer survival).
Turning to `N=C(N)NC(=N)Nc1ccc(NC(=O)Nc2ccc(Nc3c4ccccc4nc4cc([N+](=O)[O-])ccc34)cc2)cc1`, the T/C was 111 % of control (endpoint: median survival time, dose: 1.56 mg/kg/injection, schedule: Q01DX009 (ip), vehicle: water, higher = longer survival); 108 % of control (endpoint: median survival time, dose: 6.25 mg/kg/injection, schedule: Q01DX009 (ip), vehicle: water, higher = longer survival); 112 % of control (endpoint: median survival time, dose: 12.5 mg/kg/injection, schedule: Q01DX009 (ip), vehicle: water, higher = longer survival); 103 % of control (endpoint: median survival time, dose: 25.0 mg/kg/injection, schedule: Q01DX009 (ip), vehicle: water, higher = longer survival); 112 % of control (endpoint: median survival time, dose: 50.0 mg/kg/injection, schedule: Q01DX009 (ip), vehicle: water, higher = longer survival).
In the case of `CC(C)CCC[C@@H](C)[C@H]1CC[C@H]2[C@@H]3CC=C4C[C@@H](O)CC[C@]4(C)[C@H]3CC[C@]12C`, the T/C (endpoint: median survival time, dose: 100.0 mg/kg/injection, schedule: Q01DX009 (ip), vehicle: Klucel (hydroxypropylcellulose) (HPC), higher = longer survival) was 100 % of control; the T/C (endpoint: median survival time, dose: 200.0 mg/kg/injection, schedule: Q01DX009 (ip), vehicle: Klucel (hydroxypropylcellulose) (HPC), higher = longer survival) was 90 % of control; the T/C (endpoint: median survival time, dose: 400.0 mg/kg/injection, schedule: Q01DX009 (ip), vehicle: Klucel (hydroxypropylcellulose) (HPC), higher = longer survival) was 90 % of control; the T/C (endpoint: median survival time, dose: 800.0 mg/kg/injection, schedule: Q01DX009 (ip), vehicle: Klucel (hydroxypropylcellulose) (HPC), higher = longer survival) was 89 % of control.
As to `Cc1cc2oc(=O)c3c(c2c(O)c1CN1CCCC1)CCCC3`, the T/C reads like this: (endpoint: median survival time, dose: 29.0 mg/kg/injection, schedule: Q01DX009 (ip), vehicle: Klucel (hydroxypropylcellulose) (HPC), higher = longer survival) 94 % of control; (endpoint: median survival time, dose: 58.0 mg/kg/injection, schedule: Q01DX009 (ip), vehicle: Klucel (hydroxypropylcellulose) (HPC), higher = longer survival) 106 % of control; (endpoint: median survival time, dose: 116.0 mg/kg/injection, schedule: Q01DX009 (ip), vehicle: Klucel (hydroxypropylcellulose) (HPC), higher = longer survival) 106 % of control; (endpoint: median survival time, dose: 232.0 mg/kg/injection, schedule: Q01DX009 (ip), vehicle: Klucel (hydroxypropylcellulose) (HPC), higher = longer survival) 94 % of control.
`O=CN1CCOCC1`: the T/C by setting is: (endpoint: mean tumor weight, dose: 37.0 mg/kg/injection, schedule: Q01DX011 (ip), vehicle: saline, higher = larger tumour) 90 % of control; (endpoint: mean tumor weight, dose: 55.0 mg/kg/injection, schedule: Q01DX011 (ip), vehicle: saline, higher = larger tumour) 152 % of control; (endpoint: mean tumor weight, dose: 83.0 mg/kg/injection, schedule: Q01DX011 (ip), vehicle: saline, higher = larger tumour) 103 % of control; (endpoint: mean tumor weight, dose: 250.0 mg/kg/injection, schedule: Q01DX011 (ip), vehicle: saline, higher = larger tumour) 81 % of control; (endpoint: mean tumor weight, dose: 500.0 mg/kg/injection, schedule: Q01DX011 (ip), vehicle: saline, higher = larger tumour) 100 % of control; (endpoint: mean tumor weight, dose: 1000.0 mg/kg/injection, schedule: Q01DX011 (ip), vehicle: saline, higher = larger tumour) 92 % of control.
For `NC(Cc1ccc(N(CCCl)CCCl)cc1)C(=O)O` (stereo not given), the T/C reads like this: (endpoint: mean tumor weight, dose: 1.5 mg/kg/injection, schedule: Q01DX011 (ip), vehicle: carboxymethylcellulose (CMC), higher = larger tumour) 75 % of control; (endpoint: mean tumor weight, dose: 2.5 mg/kg/injection, schedule: Q01DX011 (ip), vehicle: saline, higher = larger tumour) 52 % of control; (endpoint: mean tumor weight, dose: 3.0 mg/kg/injection, schedule: Q01DX011 (ip), vehicle: carboxymethylcellulose (CMC), higher = larger tumour) 50 % of control; (endpoint: mean tumor weight, dose: 4.5 mg/kg/injection, schedule: Q01DX011 (ip), vehicle: carboxymethylcellulose (CMC), higher = larger tumour) 32 % of control; under setting [4], 33 % of control; under setting [5], 3 % of control.
With `SCc1ccccn1`, the T/C by setting is: (endpoint: mean tumor weight, dose: 37.8 mg/kg/injection, schedule: Q01DX011 (ip), vehicle: carboxymethylcellulose (CMC), higher = larger tumour) 95 % of control; (endpoint: mean tumor weight, dose: 75.5 mg/kg/injection, schedule: Q01DX011 (ip), vehicle: carboxymethylcellulose (CMC), higher = larger tumour) 97 % of control; (endpoint: mean tumor weight, dose: 150.0 mg/kg/injection, schedule: Q01DX011 (ip), vehicle: carboxymethylcellulose (CMC), higher = larger tumour) 90 % of control.
